Assay results published in paper PMC6844379, “Design, synthesis, in vitro inhibition and toxicological evaluation of human carbonic anhydrases I, II and IX inhibitors in 5-nitroimidazole series” (Journal of Enzyme Inhibition and Medicinal Chemistry, 2019).

Molecular target: T1, hCA I (Homo sapiens, UniProt P00915)
T1 construct: gene CA1; recombinant, obtained in house as reported earlier; cytosolic isoform
Assay: stopped-flow CO2 hydrase assay
Format: biochemical
Conditions: […] Hepes pH […] Na2SO4, CO2 […], […] min pre-incubation at room temperature

T1 sequence (P00915 2-261): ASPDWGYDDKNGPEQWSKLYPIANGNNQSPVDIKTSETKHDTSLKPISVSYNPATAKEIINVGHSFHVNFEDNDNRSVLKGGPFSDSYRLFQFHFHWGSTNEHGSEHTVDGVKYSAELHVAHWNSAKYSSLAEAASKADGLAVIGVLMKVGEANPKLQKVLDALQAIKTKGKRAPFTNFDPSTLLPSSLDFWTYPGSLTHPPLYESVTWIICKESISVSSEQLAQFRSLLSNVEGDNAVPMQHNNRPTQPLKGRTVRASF

Ki: 6430 nM
Compound: Cc1ncc([N+](=O)[O-])n1CCS(N)(=O)=O [compound 10, 2-(2-Methyl-5-nitro-1H-imidazol-1-yl)ethane-1-sulphonamide]
